The IC50 is the concentration needed to halve the response being measured.

Common to all, as to format: biochemical
One experiment concerns the target EGFR Δ746-750 mutant (Homo sapiens (Human), UniProt P00533, DEL746-750). Nature of the experiment: HotSpot radiometric kinase assay, EGFR Δ746-750 mutant. To be noted: 10 μM ATP. The essentials: (§1)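 Enzyme and substrate pairs were exposed to inhibitor for roughly 20 min before radiolabelled ATP (10 μM final) was introduced; the reaction proceeded 120 min at ambient temperature in pH 7.5 buffer with 1% DMSO, and phosphorylated product was captured on P81 filters for IC50 determination.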

The target in the next experiment is CLK1 (Homo sapiens (Human), UniProt P49759). Nature of the experiment: Inhibition of CLK1 kinase activity evaluated at Nanosyn (ADP-Glo). Conditions: ADP-Glo luminescence. Here is the method: (§2) Inhibition of CLK, CLK2, CLK3 and CLK4 Kinase Activity Evaluated at Nanosyn
(§3) Kinase protein and substrate were pre-diluted in the HEPES assay buffer (100 mM HEPES, pH 7.5, 0.01% Triton X-100, 0.1% BSA, 5 mM MgCl2, […] DTT, 10 Sodium Orthovanadate, […] Beta-Glycerophosphate) dispensed into 384 well plate (5 μL per well). Control samples (0%-inhibition in the absence of inhibitor, DMSO only) and 100%-inhibition (in the absence of enzyme) were assembled in replicates of six and were used to calculate %-inhibition in the presence of compounds. Test compounds were added to the protein samples by acoustic dispensing (Labcyte Echo550). Concentration of DMSO was equalized to 1% in all samples. Reactions were initiated by addition of ATP by acoustic dispensing (Labcyte Echo550) and incubated according to assay specific incubation time. After incubation. 5 μL of Promega ADP-Glo reagent was added and incubated for 40 minutes. After 40 minutes, 10 uL of Promega kinase detection reagent was added. After 10 min of incubation with Kinase detection reagent, the luminescence was read on microplate reader (Biotek Synergy).
Background: ADP-Glo first removes unused ATP, then detects ADP through luciferase.

The target in experiment [1] is EGFR L858R/T790M/C797S mutant (Homo sapiens (Human), UniProt P00533, C797S/L858R/T790M). Nature of the experiment: HotSpot radiometric kinase assay, EGFR L858R/T790M/C797S mutant. To be noted: 10 μM ATP. The essentials: as §1
The target of the next experiment is CLK4 (Homo sapiens (Human), UniProt Q9HAZ1). Nature of the experiment: Inhibition of CLK4 kinase activity evaluated at Nanosyn (ADP-Glo). Conditions: ADP-Glo luminescence. Here is the method:
as §2, §3

Another experiment addresses EGFR WT (Homo sapiens (Human), UniProt P00533). Nature of the experiment: HotSpot radiometric kinase assay (Reaction Biology), EGFR WT. Conditions: 10 μM ATP. The essentials: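 IC50 values come from curve fits of ^33P incorporation captured on P81 filters after acid washing. Kinase reactions ran 120 min at room temperature with 10 μM ATP, added about 20 min after compound. Buffer was Hepes pH 7.5 containing Mg, DTT and 1% DMSO.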

The target of experiment [2] is EGFR Δ746-750/C797S mutant (Homo sapiens (Human), UniProt P00533, C797S/DEL746-750). Nature of the experiment: HotSpot radiometric kinase assay, EGFR Δ746-750/C797S mutant. Conditions: 10 μM ATP. In short, it runs like this: as §1
The target in a further experiment is EGFR L858R/T790M mutant (Homo sapiens (Human), UniProt P00533, L858R/T790M). Nature of the experiment: HotSpot radiometric kinase assay, EGFR L858R/T790M mutant. Conditions: 10 μM ATP. The essentials:
as §1

Another experiment addresses CLK3 (Homo sapiens (Human), UniProt P49761). Nature of the experiment: Inhibition of CLK3 kinase activity evaluated at Nanosyn (ADP-Glo). Conditions: ADP-Glo luminescence. Here is the method: as §2, §3
The target in a further experiment is EGFR (D770_N771insNPG) (Homo sapiens (Human), UniProt P00533, INS770NPG). Nature of the experiment: HotSpot radiometric kinase assay, EGFR (D770_N771insNPG). To be noted: 10 μM ATP, read-out: EGFR (Δ770_N771insNPG) IC50. The essentials: as §1
A further experiment addresses CLK2 (Homo sapiens (Human), UniProt P49760). Nature of the experiment: Inhibition of CLK2 kinase activity evaluated at Nanosyn (ADP-Glo). To be noted: ADP-Glo luminescence. Here is the method: as §2, §3
The next experiment deals with EGFR L858R mutant (Homo sapiens (Human), UniProt P00533, L858R). Nature of the experiment: HotSpot radiometric kinase assay, EGFR L858R mutant. Conditions: 10 μM ATP. In short, it runs like this: as §1
Sequence of EGFR L858R mutant (P00533 25-1210 L858R): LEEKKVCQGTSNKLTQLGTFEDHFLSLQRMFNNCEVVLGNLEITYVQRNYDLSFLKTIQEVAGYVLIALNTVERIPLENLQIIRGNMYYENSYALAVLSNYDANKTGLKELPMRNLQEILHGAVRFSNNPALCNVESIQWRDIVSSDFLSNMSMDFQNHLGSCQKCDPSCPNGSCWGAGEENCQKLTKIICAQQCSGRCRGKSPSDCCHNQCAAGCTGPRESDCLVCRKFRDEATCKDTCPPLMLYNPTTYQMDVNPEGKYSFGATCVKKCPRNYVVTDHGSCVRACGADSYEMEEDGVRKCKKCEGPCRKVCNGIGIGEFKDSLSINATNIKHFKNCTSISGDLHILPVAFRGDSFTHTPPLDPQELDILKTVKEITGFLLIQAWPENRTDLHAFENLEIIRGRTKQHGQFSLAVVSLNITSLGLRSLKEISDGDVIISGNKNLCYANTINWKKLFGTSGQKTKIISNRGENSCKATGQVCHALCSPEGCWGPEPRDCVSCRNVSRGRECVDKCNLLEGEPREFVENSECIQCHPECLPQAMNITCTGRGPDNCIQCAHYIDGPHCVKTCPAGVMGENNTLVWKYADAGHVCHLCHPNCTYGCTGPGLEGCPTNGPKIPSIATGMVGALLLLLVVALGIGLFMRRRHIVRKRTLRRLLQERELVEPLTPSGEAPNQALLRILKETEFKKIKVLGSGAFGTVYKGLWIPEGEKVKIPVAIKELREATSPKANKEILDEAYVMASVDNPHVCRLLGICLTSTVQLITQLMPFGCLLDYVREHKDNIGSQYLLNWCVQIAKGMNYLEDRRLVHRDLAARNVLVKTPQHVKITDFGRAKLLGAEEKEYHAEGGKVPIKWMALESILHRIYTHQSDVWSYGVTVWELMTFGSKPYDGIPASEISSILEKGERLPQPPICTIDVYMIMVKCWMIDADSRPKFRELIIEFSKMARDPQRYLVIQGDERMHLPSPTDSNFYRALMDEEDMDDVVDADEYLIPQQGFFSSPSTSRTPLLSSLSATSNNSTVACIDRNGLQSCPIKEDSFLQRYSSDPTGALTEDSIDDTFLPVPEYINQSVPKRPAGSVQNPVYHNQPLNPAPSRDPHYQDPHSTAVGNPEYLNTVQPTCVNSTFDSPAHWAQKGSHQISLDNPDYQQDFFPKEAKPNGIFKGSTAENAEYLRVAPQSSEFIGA

Sequence of EGFR Δ746-750/C797S mutant (P00533 other isoform, or with tags, fused parts or gaps C797S/del 1-668/del 746-750 limits assumed): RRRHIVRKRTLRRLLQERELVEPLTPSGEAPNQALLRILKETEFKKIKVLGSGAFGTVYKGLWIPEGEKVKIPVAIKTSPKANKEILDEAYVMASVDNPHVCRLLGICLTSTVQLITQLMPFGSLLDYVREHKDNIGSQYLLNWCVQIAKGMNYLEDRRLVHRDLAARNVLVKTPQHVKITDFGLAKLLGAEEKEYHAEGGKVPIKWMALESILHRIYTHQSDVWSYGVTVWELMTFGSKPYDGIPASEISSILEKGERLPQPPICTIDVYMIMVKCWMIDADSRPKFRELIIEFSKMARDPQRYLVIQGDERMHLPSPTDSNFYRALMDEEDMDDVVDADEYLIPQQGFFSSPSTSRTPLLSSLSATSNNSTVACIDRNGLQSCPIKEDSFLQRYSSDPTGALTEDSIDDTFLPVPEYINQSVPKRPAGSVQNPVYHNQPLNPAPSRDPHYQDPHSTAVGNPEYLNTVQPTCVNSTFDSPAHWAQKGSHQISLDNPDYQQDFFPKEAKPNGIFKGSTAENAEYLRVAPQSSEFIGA
Sequence of CLK4 (Q9HAZ1 whole entry): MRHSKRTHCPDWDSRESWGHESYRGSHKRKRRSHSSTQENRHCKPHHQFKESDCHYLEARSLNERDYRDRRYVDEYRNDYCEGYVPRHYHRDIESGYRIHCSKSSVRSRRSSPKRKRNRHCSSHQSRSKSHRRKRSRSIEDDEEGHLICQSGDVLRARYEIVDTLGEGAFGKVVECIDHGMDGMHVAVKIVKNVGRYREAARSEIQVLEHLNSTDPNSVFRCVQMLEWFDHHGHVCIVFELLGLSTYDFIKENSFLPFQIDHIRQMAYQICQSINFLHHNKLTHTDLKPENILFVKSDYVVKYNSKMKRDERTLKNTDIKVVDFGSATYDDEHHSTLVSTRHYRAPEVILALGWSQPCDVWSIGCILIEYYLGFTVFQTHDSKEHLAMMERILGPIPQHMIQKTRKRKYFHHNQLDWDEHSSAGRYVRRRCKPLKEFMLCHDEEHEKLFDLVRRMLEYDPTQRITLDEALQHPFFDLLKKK
Sequence of CLK1 (P49759 whole entry): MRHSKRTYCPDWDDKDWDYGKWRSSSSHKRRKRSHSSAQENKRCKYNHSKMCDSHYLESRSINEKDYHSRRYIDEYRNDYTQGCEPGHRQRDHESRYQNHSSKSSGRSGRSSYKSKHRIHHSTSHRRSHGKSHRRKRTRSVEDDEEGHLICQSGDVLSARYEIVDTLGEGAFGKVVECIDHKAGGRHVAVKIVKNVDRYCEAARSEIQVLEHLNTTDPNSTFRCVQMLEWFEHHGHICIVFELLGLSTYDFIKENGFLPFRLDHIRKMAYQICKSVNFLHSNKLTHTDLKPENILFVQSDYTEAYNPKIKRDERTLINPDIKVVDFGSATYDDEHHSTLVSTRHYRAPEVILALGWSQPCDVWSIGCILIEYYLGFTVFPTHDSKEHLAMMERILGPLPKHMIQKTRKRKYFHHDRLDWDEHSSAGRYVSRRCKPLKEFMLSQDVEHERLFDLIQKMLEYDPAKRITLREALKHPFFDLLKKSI
Sequence of EGFR L858R/T790M mutant (P00533 25-1210 T790M/L858R): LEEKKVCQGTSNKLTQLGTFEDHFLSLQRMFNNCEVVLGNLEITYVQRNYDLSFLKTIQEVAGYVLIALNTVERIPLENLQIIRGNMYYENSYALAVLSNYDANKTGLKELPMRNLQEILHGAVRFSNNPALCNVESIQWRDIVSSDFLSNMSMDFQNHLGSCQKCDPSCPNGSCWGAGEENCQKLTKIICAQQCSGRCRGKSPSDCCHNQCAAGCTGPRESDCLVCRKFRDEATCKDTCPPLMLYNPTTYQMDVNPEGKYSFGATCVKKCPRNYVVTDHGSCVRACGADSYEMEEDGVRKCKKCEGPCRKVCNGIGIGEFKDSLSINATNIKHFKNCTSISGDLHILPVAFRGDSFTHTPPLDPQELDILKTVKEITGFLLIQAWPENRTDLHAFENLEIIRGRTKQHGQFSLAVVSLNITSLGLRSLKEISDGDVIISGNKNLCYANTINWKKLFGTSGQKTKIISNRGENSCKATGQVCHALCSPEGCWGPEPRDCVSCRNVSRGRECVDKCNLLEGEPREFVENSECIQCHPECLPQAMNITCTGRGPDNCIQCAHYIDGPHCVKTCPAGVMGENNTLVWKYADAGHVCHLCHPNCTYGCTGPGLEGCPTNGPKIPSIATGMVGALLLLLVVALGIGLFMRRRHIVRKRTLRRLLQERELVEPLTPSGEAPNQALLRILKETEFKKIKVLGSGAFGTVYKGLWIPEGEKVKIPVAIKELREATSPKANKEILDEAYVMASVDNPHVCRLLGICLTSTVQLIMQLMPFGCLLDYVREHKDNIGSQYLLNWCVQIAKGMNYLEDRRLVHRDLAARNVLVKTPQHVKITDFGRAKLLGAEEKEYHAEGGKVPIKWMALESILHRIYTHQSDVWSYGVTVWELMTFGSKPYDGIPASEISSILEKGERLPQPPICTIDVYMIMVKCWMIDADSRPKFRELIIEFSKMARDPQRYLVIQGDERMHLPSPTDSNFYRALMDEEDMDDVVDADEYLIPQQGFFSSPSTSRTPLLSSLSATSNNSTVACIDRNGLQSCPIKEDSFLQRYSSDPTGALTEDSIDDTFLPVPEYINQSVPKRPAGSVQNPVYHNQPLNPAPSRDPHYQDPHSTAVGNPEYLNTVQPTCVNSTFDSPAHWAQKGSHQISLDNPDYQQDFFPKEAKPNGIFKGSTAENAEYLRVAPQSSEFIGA
Sequence of EGFR L858R/T790M/C797S mutant (P00533 25-1210 T790M/C797S/L858R): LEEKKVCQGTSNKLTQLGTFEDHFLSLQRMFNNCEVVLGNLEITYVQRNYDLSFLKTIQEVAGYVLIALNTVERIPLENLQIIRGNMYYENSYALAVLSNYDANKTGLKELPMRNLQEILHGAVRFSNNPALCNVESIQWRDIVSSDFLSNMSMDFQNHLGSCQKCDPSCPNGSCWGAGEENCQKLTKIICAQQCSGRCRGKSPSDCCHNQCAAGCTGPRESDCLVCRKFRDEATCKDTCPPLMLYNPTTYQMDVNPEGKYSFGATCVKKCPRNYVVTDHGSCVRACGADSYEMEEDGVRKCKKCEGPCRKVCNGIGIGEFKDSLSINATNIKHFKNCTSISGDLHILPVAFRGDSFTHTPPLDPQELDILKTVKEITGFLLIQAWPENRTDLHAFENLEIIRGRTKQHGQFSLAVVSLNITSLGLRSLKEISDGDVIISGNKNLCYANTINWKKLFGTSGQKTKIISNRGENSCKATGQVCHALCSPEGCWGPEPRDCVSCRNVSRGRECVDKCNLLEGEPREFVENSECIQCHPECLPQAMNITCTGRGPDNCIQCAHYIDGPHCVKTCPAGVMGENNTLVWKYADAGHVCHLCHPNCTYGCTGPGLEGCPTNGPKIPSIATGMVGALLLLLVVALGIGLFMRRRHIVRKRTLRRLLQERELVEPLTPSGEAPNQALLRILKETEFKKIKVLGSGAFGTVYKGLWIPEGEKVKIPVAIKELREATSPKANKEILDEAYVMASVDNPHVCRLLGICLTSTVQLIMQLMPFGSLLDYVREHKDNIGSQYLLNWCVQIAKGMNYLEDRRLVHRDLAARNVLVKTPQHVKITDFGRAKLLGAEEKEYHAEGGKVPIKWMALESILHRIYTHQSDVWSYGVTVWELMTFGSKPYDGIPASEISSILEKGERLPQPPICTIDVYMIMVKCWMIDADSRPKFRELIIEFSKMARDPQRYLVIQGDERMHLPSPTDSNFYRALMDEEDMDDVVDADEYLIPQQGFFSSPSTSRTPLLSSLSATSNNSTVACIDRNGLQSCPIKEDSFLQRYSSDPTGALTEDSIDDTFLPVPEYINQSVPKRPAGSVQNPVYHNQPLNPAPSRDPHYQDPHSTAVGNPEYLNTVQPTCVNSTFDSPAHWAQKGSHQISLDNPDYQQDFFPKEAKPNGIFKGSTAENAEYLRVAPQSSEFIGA

Regarding `CCOc1nn(CCO)c2c1/C=C/c1n[nH]c3ccc(cc13)-c1cnn(CC)c1O[C@@H](C)CN(C)C2` [Example 168, 2-[(10S,17E)-16-ethoxy-8-ethyl-10,12-dimethyl-2,8,10,11,12,13-hexahydro-14H-3,5-ethenotripyrazolo[3,4-f:3′,4′-j:4″,3″-n][1,4]oxazacyclopentadecin-14-yl]ethan-1-ol], the IC50 was determined as 5.96 nM against EGFR Δ746-750 mutant; 0.39 nM at CLK1; 2.72 nM in [1]; 0.77 nM on CLK4; 16.6 nM on EGFR WT; 1.38 nM in experiment [2]. Besides, the IC50 at EGFR L858R/T790M mutant was 0.72 nM; at CLK3 it was 238 nM; on EGFR (D770_N771insNPG) it was 13.9 nM; on CLK2 it was 0.33 nM; against EGFR L858R mutant, 1.88 nM.
In the case of `CC(C)Oc1nn(CCO)c2c1/C=C/c1n[nH]c3ccc(cc13)-c1cnn(C)c1O[C@@H](C)C(=O)N(C)C2` [Example 220, (10S,17E)-14-(2-hydroxyethyl)-8,10,12-trimethyl-16-[(propan-2-yl)oxy]-2,12,13,14-tetrahydro-8H-3,5-ethenotripyrazolo[3,4-f:3′,4′-j:4″,3″- n][1,4]oxazacyclopentadecin-11(10H)-one], the IC50 turned out to be 398 nM against EGFR Δ746-750 mutant; 2.76 nM at CLK1; 27.5 nM in experiment [1]; 4.31 nM on CLK4; 1440 nM against EGFR WT; 475 nM in experiment [2]. Moreover, the IC50 against EGFR L858R/T790M mutant is 23.1 nM; on CLK3 it was 1 nM; on EGFR (D770_N771insNPG), 575 nM; on CLK2 it was 8.84 nM; on EGFR L858R mutant, 515 nM.
For the molecule `CCOc1nn(CCO)c2c1/C=C/c1n[nH]c3ccc(cc13)-c1cnn(C)c1O[C@@H](CC)CN(C)C2` [Example 260, 2-[(10S,17E)-16-ethoxy-10-ethyl-8,12-dimethyl-2,8,10,11,12,13-hexahydro-14H-3,5-ethenotripyrazolo[3,4-f:3′,4′-j:4″,3″-n][1,4]oxazacyclopentadecin-14-yl]ethan-1-ol], the half-inhibitory concentration (IC50) against EGFR Δ746-750 mutant was 3.5 nM; on CLK1, 4.9 nM; in [1], 3.19 nM; on CLK4, 3.15 nM; at EGFR WT, 13.6 nM; in [2] it was 3.74 nM. The IC50 was determined as 0.9 nM against EGFR L858R/T790M mutant; 361 nM at CLK3; 25.3 nM on EGFR (D770_N771insNPG); 5.21 nM at CLK2; 4.55 nM on EGFR L858R mutant.
For `CC(C)Oc1nn(CCO)c2c1/C=C/c1n[nH]c3ccc(cc13)-c1cnn(C)c1O[C@@H](C#N)CN(C)C2` [Example 264, (10R,17E)-14-(2-hydroxyethyl)-8,12-dimethyl-16-[(propan-2-yl)oxy]-2,10,11,12,13,14-hexahydro-8H-3,5-ethenotripyrazolo[3,4-f:3′,4′-j:4″,3″-n][1,4]oxazacyclopentadecine-10-carbonitrile], the IC50 turned out to be 162 nM on EGFR Δ746-750 mutant; 1.06 nM at CLK1; 8.63 nM in [1]; 1.59 nM at CLK4; 815 nM against EGFR WT; 70 nM in experiment [2]. The IC50 was 18 nM on EGFR L858R/T790M mutant; 519 nM on CLK3; 826 nM on EGFR (D770_N771insNPG); 3.08 nM on CLK2; 491 nM at EGFR L858R mutant.
As to `Cc1nn(C)c2c1/C=C/c1n[nH]c3ccc(cc13)-c1cnn(C)c1O[C@H]1CCCN(C2)C1` [Example 176, (10S,19E)-8,16,18-trimethyl-2,8,10,11,12,13,15,16-octahydro-3,5-etheno-10,14-methanotripyrazolo[3,4-h:3′,4′-l:4″,3″- p][1,6]oxazacycloheptadecine], the IC50 against EGFR Δ746-750 mutant came to 24.9 nM; at CLK1 it was 1.54 nM; in experiment [1] it was 13.1 nM; at CLK4, 1.44 nM; on EGFR WT it was 152 nM; in experiment [2], 35.2 nM. For the same molecule, the IC50 was 6.94 nM on EGFR L858R/T790M mutant; 1000 nM at CLK3; 83.4 nM at EGFR (D770_N771insNPG); 11.8 nM at CLK2; 55.5 nM against EGFR L858R mutant.
Take `CN1CCC(c2ccc3c(c2)O[C@@H]2CCN(CCOc4c(cnn4C)-c4ccc5[nH]nc(c5c4)/C=C/3)C2=O)CC1` [Example 112, (10R,16E)-3-methyl-13-(1-methylpiperidin-4-yl)-3,5,6,9,10,19-hexahydro-8H-20,22-etheno-7,10-methanodipyrazolo[3,4-i:4′,3′-m][1,8,5]benzodioxazacyclooctadecin-25-one]: the half-maximal inhibitory concentration (IC50) on EGFR Δ746-750 mutant was found to be 0.61 nM; at CLK1, 0.17 nM; in [1] it was 0.98 nM; at CLK4, 0.5 nM; on EGFR WT it was 8.28 nM; in experiment [2] it was 2.75 nM. For the same molecule, the IC50 against EGFR L858R/T790M mutant is 0.21 nM; on CLK3, 0.19 nM; at EGFR (D770_N771insNPG), 1.12 nM; on CLK2, 0.04 nM; against EGFR L858R mutant it was 1.31 nM.
Regarding `CC(C)Oc1nn(CCO)c2c1/C=C/c1n[nH]c3ccc(cc13)-c1cnn(C)c1O[C@H](C)CN(C1CC1)C2` [Example 212, 2-{(10R,17E)-12-cyclopropyl-8,10-dimethyl-16-[(propan-2-yl)oxy]-2,8,10,11,12,13-hexahydro-14H-3,5-ethenotripyrazolo[3,4-f:3′,4′-j:4″,3″- n][1,4]oxazacyclopentadecin-14-yl}ethan-1-ol], the IC50 was 16.9 nM at EGFR Δ746-750 mutant; 5.27 nM on CLK1; 0.42 nM in experiment [1]; 5.31 nM on CLK4; 154 nM against EGFR WT; 3.87 nM in experiment [2]. Moreover, the half-inhibitory concentration (IC50) at EGFR L858R/T790M mutant is 0.57 nM; at CLK3 it was 237 nM; on EGFR (D770_N771insNPG), 139 nM; on CLK2 it was 7.14 nM; against EGFR L858R mutant, 52.3 nM.
On to `CCOc1nn([C@@H](C)CO)c2c1/C=C/c1n[nH]c3cc(F)c(cc13)-c1cnn(C)c1O[C@H](C)CN(C(C)C)C2` [Example 229, (2S)-2-[(10R,17E)-16-ethoxy-19-fluoro-8,10-dimethyl-12-(propan-2-yl)-2,8,10,11,12,13-hexahydro-14H-3,5-ethenotripyrazolo[3,4-f:3′,4′-j:4″,3″- n][1,4]oxazacyclopentadecin-14-yl]propan-1-ol], for which the IC50 against EGFR Δ746-750 mutant was found to be 1.94 nM; on CLK1 it was 131 nM; in [1], 1.24 nM; at CLK4 it was 68.5 nM; on EGFR WT, 24.8 nM; in [2], 4.05 nM. The IC50 is 4.07 nM on EGFR L858R/T790M mutant; 1000 nM on CLK3; 38.6 nM at EGFR (D770_N771insNPG); 59.6 nM at CLK2; 7.1 nM against EGFR L858R mutant.
For `CCOc1nn(C)c2c1/C=C/c1n[nH]c3cc(F)c(cc13)-c1cnn(C)c1OC1CCCN(C2)C1` (stereo in doubt) [Example 178], the IC50 was determined as 6.9 nM against EGFR Δ746-750 mutant; 1.08 nM at CLK1; 19.3 nM in experiment [1]; 1.56 nM on CLK4; 22.2 nM against EGFR WT; 5.25 nM in [2]. Besides, the IC50 against EGFR L858R/T790M mutant was found to be 4.35 nM; at CLK3 it was 61.8 nM; at EGFR (D770_N771insNPG) it was 232 nM; on CLK2, 2.38 nM; at EGFR L858R mutant, 8.73 nM.

The record behind these values is patent publication US20250353864A1, “INDAZOLE CONTAINING MACROCYCLES AND THEIR USE” (BLOSSOMHILL THERAPEUTICS, INC., priority 2022, published 2025).
